In US20250326748A1, “COMPOUNDS AND METHODS FOR MODULATING SPLICING” (REMIX THERAPEUTICS INC., priority 2022, published 2025):

Key:
[1] = tested on: HiBiT-tagged MYB protein; assay: HiBiT protein abundance assay, MYB (K562 HiBiT knock-in); format: cell-based, human; conditions: HiBiT knock-in cells, 24 hours
Summary of the method: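 Endogenously HiBiT-tagged K562 knock-in lines treated 24 h at 37 °C with 10-point 3-fold dilutions (top 10 μM final, DMSO ≤0.25%) in IMDM+1% FBS. Lytic Nano-Glo luminescence normalized to DMSO and unmodified K562 controls; four-parameter fit gives 50%-abundance concentration (IC50).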

[2] = tested on: K562 cells; assay: Cell viability, Cell Titer Glo 2.0 assay, K562; conditions: 72 hours
[3] = tested on: Target C; assay: HiBiT protein abundance assay, Target C (K562 HiBiT knock-in); format: cell-based, human; conditions: HiBiT knock-in cells, 24 hours
Summary of the method: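 K562 HiBiT knock-in cells (10000/well) in IMDM + 1% FBS were treated for 24 h at 37° C. with a 10-point 3-fold dilution series (top 10 μM final), with DMSO ≤0.25%. Unmodified K562 served as baseline. HiBiT lytic luminescence was normalized to controls, and IC50 was interpolated at 50% from a four-parameter fit.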

[4] = tested on: Target C mRNA; assay: Splicing RT-qPCR panel, Target C canonical junction (CJ) mRNA; format: cell-based, human; conditions: Homo sapiens, read-out: Target C CJ (decrease in CJ mRNA levels, IC50)
Summary of the method: (§1)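 A673 cells (DMEM, 10% FBS) or K562 cells (IMDM, 10% FBS) treated 24 h at 37 °C with an 11-point 3-fold dilution, top 10 uM, DMSO ≤0.25%. Canonical-junction mRNA quantified in lysates by RT-qPCR, normalised to GAPDH, GUSB or PPIA and to DMSO (2^−ΔΔCt), then converted to % response.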

[5] = tested on: SMN2 mRNA; assay: Splicing RT-qPCR panel, SMN2 canonical junction (CJ) mRNA; format: cell-based, human; conditions: Homo sapiens, read-out: SMN2 CJ (decrease in CJ mRNA levels, IC50)
Summary of the method: as §1

| Compound | IC50 [1] [nM] | IC50 [3] [nM] | IC50 [4] [nM] | IC50 [5] [nM] | Effect on Cell Viability, K562 [2] |
| --- | --- | --- | --- | --- | --- |
| CN[C@H]1CCN(c2cnc3nc(-c4cc5cn(C)nc5c(C)c4O)nc(OC)c3c2)C1 [Compound 212, 5-{4-methoxy-6-[(3S)-3-(methylamino)pyrrolidin-1-yl]pyrido[2,3-d]pyrimidin-2-yl}-2,7-dimethylindazol-6-ol] | < 100 | 100 to 1000 | 1000 to 10000 | < 100 | A (<100 nM) |
| C[C@H]1CN(c2cnc3nc(-c4cc(F)c5nn(C)cc5c4)cc(Cl)c3c2)C[C@H](C)N1 [Compound 250] | < 100 | 100 to 1000 | 100 to 1000 | < 100 | A (<100 nM) |
| Cc1cn2nc(-c3ccc4cc(N(C)C5CCNCC5)cnc4n3)cc(C)c2n1 [Compound 205, 7-{2,8-dimethylimidazo[1,2-b]pyridazin-6-yl}-N-methyl-N-(piperidin-4-yl)-1,8-naphthyridin-3-amine] | 1000 to 10000 | > 10000 | > 10000 | 100 to 1000 | – |
| Cn1cc2cc(-c3cnc4cc(N5CCC(NC6CC6)C5)ccc4n3)c(O)c(F)c2n1 (centres unmarked) [Compound 175, 5-[6-[3-(cyclopropylamino)pyrrolidin-1-yl]quinoxalin-2-yl]-7-fluoro-2-methyl-indazol-6-ol] | < 100 | 100 to 1000 | 100 to 1000 | < 100 | A (<100 nM) |
| Cc1cn2cc(-c3cnc4nc(C5CCNCC5)ccc4c3)cc(C)c2n1 [Compound 201] | 1000 to 10000 | > 10000 | < 100 | < 100 | C (1000-9999 nM) |
| Cc1c(O)c(-c2cc(-c3ccccn3)c3cc(N4C[C@@H](C)N[C@@H](C)C4)cnc3n2)cc2cn(C)nc12 [Compound 217, 5-{6-[(3R,5S)-3,5-dimethylpiperazin-1-yl]-4-(pyridin-2-yl)-1,8-naphthyridin-2-yl}-2,7-dimethylindazol-6-ol] | 1000 to 10000 | 1000 to 10000 | > 10000 | > 10000 | C (1000-9999 nM) |
| Cn1cc2cc(-c3cc(Cl)c4cc(N5CCN6CCCC6C5)cnc4n3)cc(F)c2n1 (centres unmarked) [Compound 216, 4-chloro-2-(7-fluoro-2-methylindazol-5-yl)-6-{hexahydro-1H-pyrrolo[1,2-a]pyrazin-2-yl}-1,8-naphthyridine trifluoroacetic acid] | 100 to 1000 | 1000 to 10000 | > 10000 | < 100 | B (100-1000 nM) |
| CN(C)[C@@H]1CCN(c2cnc3nc(-c4cc5cn(C)nc5c(F)c4O)cc(Cl)c3c2)C1 [Compound 220] | < 100 | 100 to 1000 | 100 to 1000 | < 100 | A (<100 nM) |
| COc1nc(-c2cc3cn(C)nc3c(C)c2O)nc2ncc(N3CCNCC3)cc12 [Compound 162, 5-[4-methoxy-6-(piperazin-1-yl)pyrido[2,3-d]pyrimidin-2-yl]-2,7-dimethylindazol-6-ol] | < 100 | 100 to 1000 | 1000 to 10000 | < 100 | – |
| CNC1CCN(c2cnc3nc(-c4cc5cn(C)nc5c(C)c4O)cc(OC)c3n2)C1 (centres unmarked) [Compound 194, 5-{8-methoxy-2-[3-(methylamino)360pyrrolidine-1-yl]pyrido[2,3-b]pyrazin-6-yl}-2,7-dimethylindazol-6-ol] | 1000 to 10000 | 1000 to 10000 | > 10000 | 100 to 1000 | – |

Further lines, with some results ahead:

| IC50 [1] [nM] | IC50 [3] [nM] | IC50 [4] [nM] | IC50 [5] [nM] | Compound | Effect on Cell Viability, K562 [2] |
| --- | --- | --- | --- | --- | --- |
| < 100 | < 100 | < 100 | < 100 | Cn1cc2cc(-c3cnc4cc(N5CC[C@@H](NC6CC6)C5)ccc4n3)c(O)c(F)c2n1 [Compound 177, 5-[6-[(3R)-3-(cyclopropylamino)318quinoxaline-1-yl]318quinoxaline-2-yl]-7-fluoro-2-methyl-indazol-6-ol] | A (<100 nM) |
| 100 to 1000 | 1000 to 10000 | 1000 to 10000 | < 100 | Cc1c(O)c(-c2ncc3cc(N4C[C@@H](C)N[C@@H](C)C4)cnc3n2)cc2cn(C)nc12 [Compound 214] | B (100-1000 nM) |
| < 100 | 100 to 1000 | 100 to 1000 | < 100 | CNC1CCN(c2cnc3nc(-c4cc(F)c5nc(C)cn5c4)ccc3c2)C1 (centres unmarked) [Compound 100, 1-(7-{8-fluoro-2-methylimidazo[1,2-a]pyridin-6-yl}-1,8-naphthyridin-3-yl)-N-methylpyrrolidin-3-amine] | B (100-1000 nM) |
| < 100 | 1000 to 10000 | > 10000 | < 100 | Cn1cc2cc(-c3cnc4nc(N5CCNCC5)cc(Cl)c4c3)cc(F)c2n1 [Compound 101, 4-chloro-6-(7-fluoro-2-methyl-2H-indazol-5-yl)-2-(piperazin-1-yl)-1,8-naphthyridine] | B (100-1000 nM) |
| < 100 | < 100 | 100 to 1000 | < 100 | Cc1nc2c(C)c(O)c(-c3cnc4cc(N5CCC(NC6CC6)C5)ccc4n3)cc2o1 (centres unmarked) [Compound 182, 6-[6-[3-(cyclopropylamino)pyrrolidin-1-yl]quinoxalin-2-yl]-2,4-dimethyl-1,3-benzoxazol-5-ol] | A (<100 nM) |
| 100 to 1000 | 1000 to 10000 | > 10000 | < 100 | Cc1c(O)c(-c2ccc3nc(N4C[C@@H](C)N[C@@H](C)C4)cnc3n2)cc2cn(C)nc12 [Compound 195, 5-{2-[(3R,5S)-3,5-dimethylpiperazin-1-yl]pyrido[2,3-b]pyrazin-6-yl}-2,7-dimethylindazol-6-ol] | B (100-1000 nM) |
| < 100 | 100 to 1000 | 100 to 1000 | < 100 | CNC1CCN(c2cnc3nc(-c4cc5cn(C)nc5c(C)c4O)cc(Cl)c3n2)C1 (centres unmarked) [Compound 193, 5-{8-chloro-2-[3-(methylamino)355pyrrolidine-1-yl]pyrido[2,3-b]pyrazin-6-yl}-2,7-dimethylindazol-6-ol] | – |
| 100 to 1000 | 1000 to 10000 | > 10000 | < 100 | C[C@@H]1CN(c2cnc3nc(-c4cc(F)c5nn(C)cc5c4)cc(Cl)c3c2)C[C@@H](C)N1 [Compound 251] | B (100-1000 nM) |
| < 100 | 100 to 1000 | 100 to 1000 | < 100 | Cc1c(O)c(-c2ncc3cc(N4CC[C@@H](N)C4)cnc3n2)cc2cn(C)nc12 [Compound 159, (R)-5-(6-(3-aminopyrrolidin-1-yl)pyrido[2,3-d]pyrimidin-2-yl)-2,7-dimethyl-2H-indazol-6-ol 2,2,2-trifluoroacetate] | B (100-1000 nM) |
| 100 to 1000 | 1000 to 10000 | 1000 to 10000 | < 100 | CC1CN(c2cnc3nc(-c4cc(F)c5nn(C)cc5c4)cc(Cl)c3c2)CCN1 (centres unmarked) [Compound 203, 4-chloro-2-(7-fluoro-2-methyl-2H-indazol-5-yl)-6-(3-methylpiperazin-1-yl)-1,8-naphthyridine 2,2,2-trifluoroacetate] | B (100-1000 nM) |
| < 100 | 100 to 1000 | 100 to 1000 | < 100 | Cn1cc2cc(-c3cc(Cl)c4cc(N5CCNCC5)cnc4n3)c(O)c(F)c2n1 [Compound 155, 5-[4-chloro-6-(piperazin-1-yl)-1,8-naphthyridin-2-yl]-7-fluoro-2-methylindazol-6-ol] | A (<100 nM) |
| < 100 | 100 to 1000 | 100 to 1000 | < 100 | COc1nc(-c2cc3cn(C)nc3c(F)c2O)nc2ncc(N3CCC(N(C)C)CC3)cc12 [Compound 219, 5-{6-[4-(dimethylamino)piperidin-1-yl]-4-methoxypyrido[2,3-d]pyrimidin-2-yl}-7-fluoro-2-methylindazol-6-ol] | A (<100 nM) |
| 1000 to 10000 | 1000 to 10000 | > 10000 | 100 to 1000 | Cc1cn2nc(-c3ccc4cc(NC5CCNCC5)cnc4n3)cc(C)c2n1 [Compound 210, 7-{2,8-dimethylimidazo[1,2-b]pyridazin-6-yl}-N-(piperidin-4-yl)-1,8-naphthyridin-3-amine; trifluoroacetic acid] | C (1000-9999 nM) |
| < 100 | 100 to 1000 | 1000 to 10000 | < 100 | CNC1CCN(c2cnc3nc(-c4cc5cn(C)nc5c(C)c4O)nc(OC)c3c2)C1 (centres unmarked) [Compound 161, 5-{4-methoxy-6-[3-(methylamino)pyrrolidin-1-yl]pyrido[2,3-d]pyrimidin-2-yl}-2,7-dimethylindazol-6-ol] | – |
| < 100 | 1000 to 10000 | 1000 to 10000 | 100 to 1000 | Cn1cc2cc(-c3ccc4cc(N5CC[C@@H](NC(C)(C)C)C5)cnc4n3)c(O)cc2n1 [Compound 199] | – |
